Source: patent publication US7214707B2, “Dimeric compounds and their use as anti-viral agents” (Biota Scientific Management Pty Ltd., priority 2001, dated 2007)
Converted amounts (≈) assume the structure as drawn. Structures can show the parent of a compound that is named as a salt. Where two headings read alike, the source gives them in different places.

Experiments:
[1] = Rat lung retention after intra-tracheal dosing (long duration of action); settings: in vivo
Description: Rodents are anaesthetised and dosed with compound of interest by the intra-tracheal route at a dose volume of 0.8 ml/kg. The rodent is then held in the vertical position until full recovery is achieved. […] Any analytical method suitable for detection of this type of compound may be used. The time at which levels of compound fall below the sensitivity of the analytical techniques identified will determine the residency time of the compound in lung tissue.
Please note that all experiments included a co-dosed internal standard, namely compound 3 of International Patent Publication No. WO 02/20514, to permit comparison. The data are expressed as a ratio with respect to this compound, the structure of which is shown below.
The data for compound A is included for comparison purposes.

Influenza A/Sydney/5/97 = experiment: Cytopathic effect (CPE) assay in MDCK cells, MTT readout; assay type: cell-based, influenza virus; settings: concentration inhibiting CPE by 50%, up to 72 hours
Influenza B/Harbin/7/95 = experiment: as above; assay type: cell-based, influenza virus; settings: concentration inhibiting CPE by 50%, up to 72 hours
B/Harbin/7/95 BVLV008 = experiment: Plaque reduction assay (PRA) in MDCK cells; assay type: cell-based, influenza virus; settings: read-out: EC50 PRA B/Harb
A/WSN/33 BVLV09 (H1N1) = experiment: Plaque reduction assay (PRA) in MDCK cells; assay type: cell-based; settings: Influenza A virus, read-out: EC50 PRA A/WSN
[2] = tested on: A/New Caledonia/20/99 BVLV008 (H1N1); experiment: Plaque reduction assay (PRA) in MDCK cells; assay type: cell-based; settings: Influenza A virus, read-out: EC50 PRA A/New
[3] = tested on: A/Victoria/3/75 BVLV017 (H3N2); experiment: Plaque reduction assay (PRA) in MDCK cells; assay type: cell-based; settings: Influenza A virus, read-out: EC50 PRA A/Vic
[4] = tested on: A/Bayem/7/95 BVL006 (H1N1); experiment: Plaque reduction assay (PRA) in MDCK cells; assay type: cell-based; settings: Influenza A virus, read-out: EC50 PRA A/Bay
[5] = tested on: A/Sydney/5/97 BVLV015 (H3N2); experiment: Plaque reduction assay (PRA) in MDCK cells; assay type: cell-based; settings: Influenza A virus, read-out: EC50 PRA A/Syd
B/Hong Kong/5/72 BVLV012 = experiment: Plaque reduction assay (PRA) in MDCK cells; assay type: cell-based, influenza virus; settings: read-out: EC50 PRA B/HongK
[6] = tested on: A/Panama/2007/99 BVLV008 (H3N2); experiment: Plaque reduction assay (PRA) in MDCK cells; assay type: cell-based; settings: Influenza A virus, read-out: EC50 PRA A/Pan
[7] = tested on: B/Yamanashi/166/98 BVLV007; experiment: Plaque reduction assay (PRA) in MDCK cells; assay type: cell-based; settings: influenza B virus, read-out: EC50 PRA B/Yam, reduces plaque numbers by 50%, MDCK cells
[8] = reduces plaque numbers by 50%, MDCK cells

SMILES | Ratio Mean (lung) (cmpd)/PCT AU01/01128 compound 3 ([1]; 0.1 mg/kg, 48 h) | Ratio Mean (lung) (cmpd)/PCT AU01/01128 compound 3 ([1]; 0.1 mg/kg, 168 h) | ID50 A/Sydney/5/97 (Influenza A/Sydney/5/97) [ng/mL] | ID50 B/Harbin/7/95 (Influenza B/Harbin/7/95) [ng/mL] | EC50 (B/Hong Kong/5/72 BVLV012) [ng/mL] | EC50 [2, 8] [ng/mL] | EC50 [3, 8] [ng/mL] | EC50 [7] [ng/mL] | further results
CC(=O)N[C@H]1[C@H]([C@H](OC(=O)NCCc2ccc(CCNC(=O)O[C@@H]([C@@H]3OC(C(=O)O)=C[C@H](NC(=N)N)[C@H]3NC(C)=O)[C@H](O)CO)cc2)[C@H](O)CO)OC(C(=O)O)=C[C@@H]1NC(=N)N [Example 2, (2R,3R,4S)-3-(acetylamino)-2-{(1R,2R)-1-[({[2-(4-{2-[({[(1R,2R)-1-((2R,3R,4S)-3-(acetylamino)-4-{[amino(imino)methyl]amino}-6-carboxy-3,4-dihydro-2H-pyran-2-yl)-2,3-dihydroxypropyl]oxy}carbonyl)amino]ethyl}phenyl)ethyl]amino}carbonyl)oxy]-2,3-dihydroxypropyl}-4-{[amino(imino)methyl]amino}-3,4-dihydro-2H-pyran-6-carboxylic Acid] | 0.44 | 0.34 |  |  |  |  |  |  | concentration at 48 h ([1]; 0.1 mg/kg, (cmpd) ng/g): 740 ng/g; concentration at 48 h ([1]; 0.1 mg/kg, Mean (cmpd) ng/g): 603 ng/g; concentration at 168 h ([1]; 0.1 mg/kg, Mean (cmpd) ng/g): 259 ng/g
CC(=O)N[C@H]1[C@H]([C@H](OC(=O)NCCc2cccc(CCNC(=O)O[C@@H]([C@@H]3OC(C(=O)O)=C[C@H](NC(=N)N)[C@H]3NC(C)=O)[C@H](O)CO)c2)[C@H](O)CO)OC(C(=O)O)=C[C@@H]1NC(=N)N [Example 1, (2R,3R,4S)-3-(acetylamino)-2-{(1R,2R)-1-[({[2-(3-{2-[({[(1R,2R)-1-((2R,3R,4S)-3-(acetylamino)-4-{[amino(imino)methyl]amino}-6-carboxy-3,4-dihydro-2H-pyran-2-yl)-2,3-dihydroxypropyl]oxy}carbonyl)amino]ethyl}phenyl)ethyl]amino}carbonyl)oxy]-2,3-dihydroxypropyl}-4-{[amino(imino)methyl]amino}-3,4-dihydro-2H-pyran-6-carboxylic Acid] |  |  | 84 (≈ 95.4 nM) | 0.2 (≈ 0.227 nM) |  |  |  |  | 
CC(=O)N[C@H]1[C@H]([C@H](O)[C@H](O)CO)OC(C(=O)O)=C[C@@H]1N=C(N)N [Compound A, 4-guanidino-2-deoxy-2,3-dehydro-N-acetylneuraminic acid, reference compound] | 0.26 | 0.08 |  |  | 21 (≈ 63.2 nM) |  |  |  | EC50 (B/Harbin/7/95 BVLV008): 0.19 ng/mL (≈ 0.572 nM); EC50 (A/WSN/33 BVLV09 (H1N1)): 56 ng/mL (≈ 169 nM); EC50 [2]: 0.27 ng/mL (≈ 0.812 nM); EC50 [3]: 5.5 ng/mL (≈ 16.6 nM); EC50 ([4]; H1N1, MDCK): 35 ng/mL (≈ 105 nM); EC50 [5]: 2.4 ng/mL (≈ 7.22 nM); EC50 [6]: 2.7 ng/mL (≈ 8.12 nM)
NC12CC3CC(CC(C3)C1)C2 [Amantadine] |  |  |  |  | > 10000 | 11 (≈ 72.7 nM) | 220 (≈ 1450 nM) |  | EC50 [6, 8]: 157 ng/mL (≈ 1040 nM)
CC(=O)N[C@H]1[C@H]([C@H](OC(=O)Nc2ccc(Cc3ccc(NC(=O)O[C@@H]([C@@H]4OC(C(=O)O)=C[C@H](NC(=N)N)[C@H]4NC(C)=O)[C@H](O)CO)cc3)cc2)[C@H](O)CO)OC(C(=O)O)=C[C@@H]1NC(=N)N [Example 8, (2R,3R,4S)-3-(acetylamino)-2-{(1R,2R)-1-[({[4-({4-[({[(1R,2R)-1-((2R,3R,4S)-3-(acetylamino)-4-{[amino(imino)methyl]amino}-6-carboxy-3,4-dihydro-2H-pyran-2-yl)-2,3-dihydroxypropyl]oxy}carbonyl)amino]phenyl}methyl)phenyl]amino}carbonyl)oxy]-2,3-dihydroxypropyl}-4-{[amino(imino)methyl]amino}-3,4-dihydro-2H-pyran-6-carboxylic Acid bis TFA Salt] |  |  | 13 | <0.05 |  | 0.0001 | 0.003 | 0.02 | EC50 (B/Harbin/7/95 BVLV008): < 0.0001 ng/mL; Ratio Mean (lung) (cmpd)/PCT AU01/01128 compound 3 ([1]; 0.4 mg/kg, 48 h): 1.05; (lung) ([1]; 0.4 mg/kg, 168 h): 3571 ng/g; Ratio Mean (lung) (cmpd)/PCT AU01/01128 compound 3 ([1]; 0.4 mg/kg, 168 h): 2.28; concentration at 48 h ([1]; 0.4 mg/kg, (lung) ng/g): 3800 ng/g; concentration at 168 h ([1]; 0.4 mg/kg, (lung) ng/g): 3230 ng/g; concentration at 48 h ([1]; 0.4 mg/kg, Mean (lung) ng/g): 3250 ng/g; concentration at 168 h ([1]; 0.4 mg/kg, Mean (lung) ng/g): 3400 ng/g
CC(=O)N[C@H]1[C@H]([C@H](OC(=O)NCc2ccc(S(=O)(=O)c3ccc(CNC(=O)O[C@@H]([C@@H]4OC(C(=O)O)=C[C@H](NC(=N)N)[C@H]4NC(C)=O)[C@H](O)CO)cc3)cc2)[C@H](O)CO)OC(C(=O)O)=C[C@@H]1NC(=N)N [Example 4, (2R,3R,4S)-3-(acetylamino)-2-[(1R,2R)-1-({[({4-[(4-{[({[(1R,2R)-1((2R,3R,4S)-3-(acetylamino)-4-{[amino(imino)methyl]amino}-6-carboxy-3,4-dihydro-2H-pyran-2-yl)-2,3-dihydroxypropyl]oxy}-carbonyl)amino]methyl}phenyl)sulfonyl]phenyl}methyl)amino]carbonyl}oxy)-2,3-dihydroxypropyl]-4-{[amino(imino)methyl]amino}-3,4-dihydro-2H-pyran-6-carboxylic Acid] |  |  | >100 | <0.05 |  |  |  |  | 
CCOC(=O)C1=C[C@@H](OC(CC)CC)[C@H](NC(C)=O)[C@@H](N)C1 [Oseltamivir] |  |  |  |  | 32 (≈ 102 nM) | 0.23 (≈ 0.736 nM) | 0.11 (≈ 0.352 nM) | 0.7 (≈ 2.24 nM) | EC50 [6, 8]: 0.3 ng/mL (≈ 0.96 nM)
CC(=O)N[C@H]1[C@H]([C@H](OC(=O)NCc2ccc(-c3ccc(CNC(=O)O[C@@H]([C@@H]4OC(C(=O)O)=C[C@H](NC(=N)N)[C@H]4NC(C)=O)[C@H](O)CO)cc3)cc2)[C@H](O)CO)OC(C(=O)O)=C[C@@H]1NC(=N)N [Example 9, (2R,3R,4S)-3-(acetylamino)-2-{(1R,2R)-1-[({[(4′-{[({[(1R,2R)-1-((2R,3R,4S)-3-(acetylamino)-4-{[amino(imino)methyl]amino}-6-carboxy-3,4-dihydro-2H-pyran-2-yl)-2,3-dihydroxypropyl]oxy}carbonyl)amino]methyl}-1,1′-biphenyl-4-yl)methyl]amino}carbonyl)oxy]-2,3-dihydroxypropyl}-4-{[amino(imino)methyl]amino}-3,4-dihydro-2H-pyran-6-carboxylic Acid bis TFA Salt] | 0.52 | 0.45 | >100 | 0.08 | 0.23 | 0.003 |  | 0.006 | EC50 ([4]; H1N1, reduces plaque numbers by 50%, MDCK cells): > 1 ng/mL; EC50 [5, 8]: 3.7 ng/mL; concentration at 48 h ([1]; 0.1 mg/kg, Mean (cmpd) ng/g): 1400 ng/g; concentration at 168 h ([1]; 0.1 mg/kg, Mean (cmpd) ng/g): 835 ng/g
